Data as given in patent US20190015423A1, “REGULATION OF GENE EXPRESSION BY MODULATING PRIMARY CILIA LENGTH” (THE TRUSTEES OF COLUMBIA UNIVERSITY IN THE CITY OF NEW YORK, priority 2016, published 2019).
Counter-ions that a name gives are not always drawn. Where a SMILES comes first, the peptide text is derived from it.

Tested on: MLO-Y4 osteocytes
Assay: High-throughput drug screening of primary cilia length and incidence
Type: cell-based
Settings: 10 μM, 16 hours, triplicate; normalized to vehicle control; standard deviation away from the population average
Experimental: MLO-Y4 osteocytes were maintained on collagen I-coated dishes in MEMα (Life_Technologies) supplemented with 5% fetal bovine serum (FBS), 5% calf serum (CS), and 1% penicillin/streptomycin (P/S) at 37° C. and 5% CO2. Osteocytes were then seeded onto 384-well collagen-coated plates for 72 hours before fixation. […] These libraries include Tocris, Sigma LOPAC, Selleck Chemical, Prestwick, and Spectrum commercially available compound libraries. All cell seeding and plate handling was performed with the Perkin Elmer cell:explorer workstation.
Cells were fixed in 4% paraformaldehyde and permeabilized with 0.1% Triton-X 100 (Sigma). 10% goat serum (vendor) was used for blocking. Cilia were stained using a monoclonal antibody against acetylated α-tubulin (1:20) from a C3B9 hybridoma cell line, and visualized with A F488 (1:1000, ThermoFisher). Nuclei were visualized with Hoechst. Cells were imaged using a GE INCell 2000 high-throughput imager at 40× magnification. 4 fields of view were taken per well.
Each pair of nuclei and cilia images was first analyzed individually, then the entire population was examined to evaluate each compound's effect on cilia length and incidence. A custom MATLAB script was developed to perform all image analysis. This script first utilizes an enhanced implementation of a watershed transform, which is a segmentation tool which enables detection of similarly shaped overlapping particles in noisy images by the procedural whittling down of pixels found close to the edge of such particles. The augmentation of the algorithm incorporates thresholding for noise removal based on signal intensity and object size, nuclei dilation to exclude non-cellular artifacts, as well as skeletonization of cilia to quantify length. The results of the analysis are number of nuclei, number of cilia, and average cilia length in each image.
Compounds were selected based on deviation from the population mean. Each well was normalized to vehicle control images on each plate, allowing the establishment of a normalized population mean. Hits were chosen based on compounds whose triplicate mean was furthest (based on standard deviation away) from the population mean. […] Compounds were classified based on mechanism of action.
To identify compounds that modulate primary cilia formation a high-throughput platform was developed to automate cell culture, staining, imaging, and analysis, as shown in schematic form in FIG. 18. […] Cells were cultured on 384-well plates, and treated with small molecules with known biologic activity, enabling classification of mechanisms of action. Drug treatment was applied for 16 hours at 10 μM concentration, performed in triplicate, before fixation and immunostaining of primary cilia. Cells were then imaged using the GE INCell 2000 High Content Analyzer, capturing 4 fields of view per well at 40× magnification. Additionally, each plate contains 8 wells of DMSO vehicle control.
A MATLAB script was developed to detect and analyze changes in ciliogenesis. […] A representative exemplary image (FIG. 19A) is cropped to better display features, scale bar represents 30 μm. A custom MATLAB script was used to identify nuclei and cilia for analysis (FIG. 19B). […] Objects are further filtered based on size and signal intensity.
Cilia length and incidence for each field of view were normalized to vehicle control on that individual plate. This allowed development of a normalized population average and standard deviation. […] To control for toxic effects only small molecules with at least 40% viability, based on number of nuclei versus control, were selected as hits. Furthermore, compounds repeated between multiple libraries eliciting the same effect on cilia length or incidence were excluded, such that only one of the repeated compounds was selected as a hit.

Structure (SMILES)	Average Length SD Away	Average Incidence SD Away
COc1ccc(C(=O)c2c(C)n(CCN3CCOCC3)c3cc(I)ccc23)cc1 [AM 630]	1.741 SD	
COc1cc2c(cc1OC)CC(=O)N(CCCN(C)C[C@H]1Cc3cc(OC)c(OC)cc31)CC2 [Ivabradine HCl (Procoralan), Ivabradine HCl]		1.611 SD
CC(=O)O[C@H]1C[C@@H](OC(C)=O)C(C)(C)[C@@H]2C[C@@H](OC(C)=O)[C@]3(C)[C@H](CC[C@@]4(C)[C@H](c5ccoc5)OC(=O)[C@H]5O[C@@]534)[C@@]12C [KHIVORIN]	1.723 SD	
CCN(C)C(=O)Oc1cccc([C@H](C)N(C)C)c1 [Rivastigmine tartrate (Exelon), Rivastigmine tartrate]		1.664 SD
Nc1nc(N)c2nc(-c3ccccc3)c(N)nc2n1 [Triamterene]	2.775 SD	
CC(C)OC(=O)C(C)(C)Oc1ccc(C(=O)c2ccc(Cl)cc2)cc1 [Fenofibrate (Tricor Trilipix), Fenofibrate]		2.95 SD
O=c1[nH]c(=O)n([C@H]2C[C@H](O)[C@@H](CO)O2)cc1I [Idoxuridin]		1.798 SD
Fc1ccc(-c2nc3n(c2-c2ccncc2)CCS3)cc1 [SKF 86002 dihydrochloride]	1.549 SD	
CN(CCOc1ccc(C[C@H](Nc2ccccc2C(=O)c2ccccc2)C(=O)O)cc1)c1ccccn1 [GW 1929]	1.65 SD	
O=C(/C=C/c1ccccc1)c1ccc(O[C@@H]2O[C@H](CO)[C@@H](O)[C@H](O)[C@H]2O)cc1O [2 4 -DIHYDROXYCHALCONE 4 -GLUCOSIDE]	1.598 SD	
S=c1nc[nH]c2nc[nH]c12 [MERCAPTOPURINE]	1.722 SD	
COC(=O)C1=CO[C@@H](O[C@@H]2O[C@H](CO)[C@@H](O)[C@H](O)[C@H]2O)[C@@H]2C(CO)=CC[C@H]12 [Geniposide]		4.335 SD
O=C1CN=C(c2cccc(Br)c2)c2oc3ccccc3c2N1 [5-BDBD]	1.92 SD	
CC[C@@]1(O)C(=O)OCc2c1cc1n(c2=O)Cc2cc3c(CN(C)C)c(O)ccc3nc2-1 [Topotecan hydrochloride hydrate]	3.899 SD	2.75 SD
COc1c(C)c2c(c(O)c1C/C=C(\C)CCC(=O)OCCN1CCOCC1)C(=O)OC2 [Mycophenolate mofetil (CellCept), Mycophenolate mofetil]	1.579 SD	1.654 SD
CC(C)(C)[N+]([O-])=Cc1ccc(S(=O)(=O)[O-])cc1S(=O)(=O)[O-].[Na+].[Na+] [NXY 059]		1.838 SD
CCc1ccc(CCOc2ccc(CC3SC(=O)NC3=O)cc2)nc1 (stereo not shown) [Pioglitazone hydrochloride (Actos), Pioglitazone hydrochloride]		2.52 SD
COc1ccc2cccc(N3CCN(CCNC(=O)c4ccc(F)cc4)CC3)c2c1.Cl [S 14506 hydrochloride]	1.54 SD	
CN1CCN2c3ncccc3Cc3ccccc3C2C1 (stereo not shown) [Mirtazapine (Remeron Avanza), Mirtazapine]		1.681 SD
c1ccc(-c2[nH]ncc2-c2ccnc3ccccc23)nc1 [LY 364947]		1.591 SD
CC(=O)O[C@@]12CO[C@@H]1C[C@H](O)[C@@]1(C)C(=O)[C@H](O)C3=C(C)[C@@H](OC(=O)[C@H](O)[C@@H](NC(=O)OC(C)(C)C)c4ccccc4)C[C@@](O)([C@@H](OC(=O)c4ccccc4)[C@H]21)C3(C)C [Docetaxel]	3.416 SD	
CCC[S+]([O-])c1ccc2[nH]c(NC(=O)OC)nc2c1 (stereo not shown) [Albendazole Oxide (Ricobendazole), Albendazole Oxide]		2.017 SD
COc1cc2c(cc1O)CC[C@@H]1[C@@H]2CC[C@]2(C)[C@@H](O)CC[C@@H]12 [2-Methoxyestradiol]	1.62 SD	
COc1ccc(C(=O)CC(=O)c2ccc(C(C)(C)C)cc2)cc1 [Avobenzone (Parsol 1789), Avobenzone]		1.502 SD
O=C1NC(=O)C(c2ccccc2[N+](=O)[O-])=C1Nc1ccc(O)c(Cl)c1 [SB 415286]	2.05 SD	
COc1ccc(-c2cc3nccn3c(Nc3ncccc3C(N)=O)n2)cc1OC.Cl.O [BAY 61-3606 hydrochloride hydrate]	1.54 SD	

Structure (SMILES)	Average Length SD Away	Average Incidence SD Away
COC(=O)[C@H](Cc1ccccc1)NC(=O)[C@@H](N)CC(=O)O [Aspartame] (H-Asp-Phe-OMe)		1.732 SD
CCCCC/N=c1\ccn(Cc2ccccc2)c2ccccc12 [CP 339818 hydrochloride]	1.715 SD	
CCN[C@H]1C[C@H](C)S(=O)(=O)c2sc(S(N)(=O)=O)cc21 [Dorzolamide HCL]	2.205 SD	
C[C@@H](NC(=O)/C(C#N)=C/c1ccc(O)c(O)c1)c1ccccc1 (single isomer, unassigned) [Tyrphostin B44 (−) enantiomer]	1.877 SD	
Cl.O=C1NCCc2[nH]c(-c3ccncc3)cc21 [PHA 767491 hydrochloride]	1.724 SD	
CC1C(=O)OC2C(O)C34C5CC(C(C)(C)C)C36C(OC(=O)C6O)OC4(C(=O)O5)C12O (stereo not shown) [Ginkgolide B]	1.581 SD	
CCN(CC)CCNc1ccc(CO)c2sc3ccccc3c(=O)c12 [HYCANTHONE]	2.896 SD	
O=C(O)c1nn(Cc2ccc(Cl)cc2Cl)c2ccccc12 [Lonidamine]	2.357 SD	
COc1cc(/C=C/C(=O)N2CCC=CC2=O)cc(OC)c1OC [Piperlongumine]	3.198 SD	
Nc1nccc(-c2ccc3noc(-c4ccc(Cl)cc4)c3c2)n1 [PIM 1 Inhibitor 2]	3.223 SD	
O=c1[nH]c(=O)n([C@H]2C[C@H](O)[C@@H](CO)O2)cc1F [Floxuridine]	1.672 SD	1.58 SD
C[C@H](CCC(=O)O)[C@H]1CC[C@H]2[C@@H]3C(=O)C[C@@H]4CC(=O)CC[C@]4(C)[C@H]3CC(=O)[C@]12C [DEHYDROCHOLIC ACID]	1.611 SD	
O=C1Nc2ccccc2/C1=C1/Nc2ccccc2/C1=N\O [Indirubin-3′-oxime]	2.475 SD	
C[S+]([O-])c1ccc(-c2nc(-c3ccc(F)cc3)c(-c3ccncc3)[nH]2)cc1 (stereo not shown) [SB 203580]	1.797 SD	
C[N+]1(C)[C@@H]2C[C@@H](OC(=O)C(O)(c3cccs3)c3cccs3)C[C@H]1[C@@H]1O[C@@H]12 [Tiotropium Bromide hydrate]		1.593 SD
CN(C)CCOC(c1ccccc1)c1ccccc1 [Diphenhydramine HCl (Benadryl), Diphenhydramine HCl]		1.928 SD
CC(C(=O)[O-])c1cccc(Oc2ccccc2)c1.CC(C(=O)[O-])c1cccc(Oc2ccccc2)c1.[Ca+2] (stereo not shown) [Fenoprofen calcium]		3.368 SD
C=CCN1C[C@H](C)N([C@H](c2ccc(C(=O)N(CC)CC)cc2)c2cccc(O)c2)C[C@H]1C [BW 373U86]	1.553 SD	
C[C@@H]1C[C@@H]([C@H](O)CC2CC(=O)NC(=O)C2)C(=O)[C@@H](C)C1 [CYCLOHEXIMIDE]	3.609 SD	
COc1nccc(-c2c(-c3ccc(F)cc3)ncn2C2CCC(O)CC2)n1 (stereo not shown) [SB 239063]	4 SD	1.795 SD
O.c1cnc2c(c1)ccc1cccnc12 [110-Phenanthroline monohydrate]	1.838 SD	
O=C1c2ccccc2C(=O)C1c1ccccc1 [Phenindione (Rectadione), Phenindione]		1.688 SD
Cc1cc(NS(=O)(=O)c2ccc(N)cc2)no1 [Sulfamethoxazole]		1.767 SD
Cc1cc(NC(=O)Nc2ccc(N(C)C)cc2)c2cc(F)cc(F)c2n1 [SB 408124]	2.398 SD	
Nc1nc2nc[nH]c2c(=S)[nH]1 [THIOGUANINE]	1.675 SD	
